“And” between values parts separate entries of the source, which are not always exact repeats. Equal entries are not always repeated.
Legend:
TcRPE1 = target: T1, TcRPE1 (Trypanosoma cruzi, UniProt Q4DBL0); assay: coupled enzyme assay (transketolase), spectrophotometric; assay type: biochemical; settings: pH 7.25, 30°C, triethanolamine-HCl, 0.02–2 mM substrate; biphasic kinetics, authors give no constants
T1 construct: gene Tc00.1047053510257.30; full-length ORF of 735 bp, pET-22b(+), C-terminal His6 tag kept, E. coli BL21 codon Plus (DE3), subunit 27 kDa, monomer to octamer mixture
T1 sequence (Q4DBL0 1-244): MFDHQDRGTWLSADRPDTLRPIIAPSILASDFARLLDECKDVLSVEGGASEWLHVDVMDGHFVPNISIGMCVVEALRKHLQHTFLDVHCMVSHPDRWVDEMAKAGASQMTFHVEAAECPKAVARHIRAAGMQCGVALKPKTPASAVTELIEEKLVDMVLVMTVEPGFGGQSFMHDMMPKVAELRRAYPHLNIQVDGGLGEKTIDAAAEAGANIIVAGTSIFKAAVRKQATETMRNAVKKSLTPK

[1] = target: recombinant ribulose-5-phosphate epimerase 2 from Trypanosoma cruzi CL Brener clone (TcRPE2) (Trypanosoma cruzi CL Brener clone); assay: SEC-MALS; Superose 12 column with in-line multi-angle static and dynamic light scattering (SEC-FPLC-LS), room temperature, 50 mM Tris-HCl pH 7.6, 500 mM NaCl, 0.4 ml/min; mixture of oligomeric species of one protein

| Molecule | coupled enzyme assay (transketolase), spectrophotometric (TcRPE1) | stoichiometry N [1] |
| --- | --- | --- |
| O=C(CO)[C@H](O)[C@H](O)COP(=O)(O)O [D-ribulose-5-phosphate] | TcRPE1 showed a very complex kinetic pattern to increasing concentrations of Ru5P |  |
| recombinant ribulose-5-phosphate epimerase 2 from Trypanosoma cruzi CL Brener clone (TcRPE2) (enzyme) |  | 2 and 4 |

Reference: article PMC5312968, “Structure, kinetic characterization and subcellular localization of the two ribulose 5-phosphate epimerase isoenzymes from Trypanosoma cruzi” (PLoS ONE, 2017)
